A word on the EC50: it is the concentration needed to bring the measured effect to its halfway point. By EC90 is commonly meant the concentration at which the effect reaches the 90% level.

Values joined by “and” are separate entries in the source; they are usually repeats but may differ in a detail not shown here. Equal values may be shown once. Read-outs that look alike come from different tables or passages of the source.

The subject of data set [1] is T. gondii tachyzoites (type II ME49-FLuc). The data set can be described thus: Luciferase-based tachyzoite growth assay. The data set is classed as cell-based, Toxoplasma gondii. On the set-up: EC50 log inhib vs normalized response: unit: µM. The protocol: All assays were carried out in a 96-well plate format containing confluent HFF monolayers to support parasite growth. To avoid edge effects, only the inner 60 wells of each plate were used. All compounds described were provided by the Broad Institute as 10 mM stocks in 100% DMSO and stored at −80 °C prior to use. Pyrimethamine (Sigma-Aldrich) was prepared as 5 mM stock in 100% DMSO and stored at −20 °C prior to use.
(§1) All statistical analyses were conducted using Prism 9 (GraphPad Software, Inc.). Dose–response inhibition curves for parasite and host cell toxicity screens (EC50 values) were generated using (Log(inhibitor) vs. normalized response—Variable slope) function. […] For multiple comparisons, two-way ANOVA analysis function using either Sidák’s multiple comparisons test or Dunnett’s multiple comparisons test was applied as indicated.

Another data set in a line: in vitro. The following applies: human, top 20 μM. The data set is classed as cell-based, human. The protocol:
(§2) For the toxicity screen, compounds were tested in 96-well plates using all the wells as no edge affect was observed. Compounds were diluted to 40 μM (2x concentration in 10% DMEM, 0.4% DMSO) before step-wise, 3-fold dilution in 10% DMEM to create 10-dose series (20 μM to 0.001 μM). Host cells were plated in black, μ-Clear 96-well plates (Greiner Bio-One). We compared several lineages including HepG2 (human hepatocellular carcinoma (ATCC-HB-8065)), THP-1 (human monocytic tumor line), SH-SY5Y (human neuroblastoma (ATCC CRL-2266)), A549 (human lung carcinoma (ATCC CRM-CCL-185)) and Caco-2 (human intestinal adenocarcinoma (ATCC HTB-37)) and HFF (primary human foreskin fibroblast) obtained from the laboratory of John Boothroyd at Stanford University. Cells were maintained in culture media according to the formulations recommended by ATCC. Cells were plated at a density (ranging from of 5 × 10^3 to 2 × 10^4 cells/well (100 μL vol)) resulting in sub-confluent monolayers to allow expansion during the 2 day growth assay. THP-1 cells were treated with 10 ng/ml phorbol 12-myristate 13-acetate (PMA) for 24 h to differentiate into macrophages before compound addition. For all other cells, compounds were added at 6 h post seeding to host cells containing plates (200 μL final volume, 0.2% DMSO) and incubated in culture medium at 37 °C supplemented with 5% CO2. At 44 h post compound addition (50 h total growth time), culture media was aspirated and replaced with Live Imaging solution (ThermoFisher) supplemented with 10 μg/mL Hoeschst 33342 (Sigma) for 20 min at 37 °C. […] Alternatively, plates fixed with 4% formaldehyde for 10 min and stained with 10 μg/mL Hoeschst 33342 (Sigma) for 20 min and imaged using a Cytation 3 multi-mode imager (DAPI, 10x objective, 4 images/well) and nuclei quantified using the Gen5 imager software (v3.08). Assays were repeated with two technical replicates within each of two independent biological replicates.
as §1

In data set [2] the test system is A549 (human lung carcinoma). The data set can be described thus: in vitro. It counts as cell-based. The following applies: EC50 host cell/EC50 T. gondii. Here is the method:
as §2, §1

Data set [3] relates to SH-SY5Y (human neuroblastoma). The data set can be described thus: in vitro. The data set is classed as cell-based. The following applies: EC50 host cell/EC50 T. gondii. Here is the method:
as §2, §1

In data set [4] the test system is THP-1 (human monocytic tumor line). The data set can be described thus: in vitro. The data set is classed as cell-based. The following applies: EC50 host cell/EC50 T. gondii. Here is the method:
as §2, §1

In data set [5] the test system is blood-stage P. falciparum. The following applies: Fig 2A Tg_Pf_Cp EC50s; previously reported values, reference not visible in the shown part; cited from earlier work.
Data set [6] has as its system HepG2 (human hepatocellular carcinoma). Nature of the data set: in vitro. The following applies: EC50 host cell/EC50 T. gondii. It counts as cell-based. The protocol: as §2, §1
For the next data set, the system named is T. gondii RH-FLuc parent. Nature of the data set: Luciferase growth assay, parental line of resistance selection. The data set is classed as cell-based, Toxoplasma gondii. Particulars: for luciferase signal (raw): parent. The source says:
[…]. […] […].

The mark [7] stands for this setting: Fig 1A rank order, T. gondii growth.
Where [8] appears, read: Toxoplasma gondii, ME49-FLuc, 10-point dose-response, two biological replicates, read-out: EC50, T. gondii tachyzoite growth.
Setting [9] is: Toxoplasma gondii, Table 2, read-out: T. gondii EC50.
The mark [10] stands for this setting: Toxoplasma gondii, Table S1, ME49-FLuc tachyzoites, read-out: T. gondii EC50.
[11] abbreviates: PMA differentiated, read-out: THP-1 EC50.
The mark [12] stands for this setting: nuclei count, 44 h, read-out: A549 EC50.
Setting [13] is: nuclei count, 44 h, read-out: HFF EC50.
Setting [14] is: nuclei count, 44 h, read-out: SH-SY5Y EC50.
Setting [15] is: nuclei count, 44 h after compound addition, read-out: HEPG2 EC50.
[16] abbreviates: Toxoplasma gondii, Fig 2A Tg_Pf_Cp EC50s, read-out: EC50 T. gondii.
The mark [17] stands for this setting: Toxoplasma gondii, from 10-dose-response curve of Fig. 1, read-out: EC90, tachyzoite growth.

Turning to `CN(C[C@@H]1[C@H](c2ccc(C#Cc3ccccc3)cc2)[C@@H]2CN(C(=O)Nc3ccc(OC4CC4)cc3)CCCCN12)S(C)(=O)=O` [BRD2987], the “EC50 log inhib vs normalized response” value in data set [1] (setting [7]) turned out to be 0.01849. Moreover, the EC50 was 18.5 nM in data set [1] (Toxoplasma gondii, Fig S2 source data, read-out: T. gondii (EC50, Fig S2 source data)); 18.5 nM in data set [1] (setting [8]); 19 nM in data set [1] (setting [9]); 18 nM in data set [1] (setting [10]); 255 nM in the data set “in vitro” (setting [11]); 2170 nM in “in vitro” (setting [12]). In addition, the EC50 in “in vitro” (setting [13]) was greater than 20000 nM; in “in vitro” (setting [14]), 2360 nM; in the data set “in vitro” (setting [15]), greater than 20000 nM; in data set [5], 2 nM. In data set [2], this compound displayed an A549 fold selectivity of 114.0 fold. This compound displayed an SH-SY5Y fold selectivity in data set [3] of 123.9 fold. Also, in data set [4], the THP-1 fold selectivity is 13.4 fold.
With `COc1ccc(NC(=O)N2CCCCN3[C@H](CO)[C@H](c4ccc(C#Cc5ccccc5)cc4)[C@@H]3C2)cc1` [BRD3444], the “EC50 log inhib vs normalized response” value in data set [1] (setting [7]) stood at 0.02885. In addition, the EC50 in data set [1] (setting [16]) was 28.9 nM; in data set [1] (setting [8]) it was 28.9 nM; in data set [1] (setting [9]) it was 29 nM; in data set [1] (setting [10]), 28 nM; in the data set “in vitro” (setting [11]), 2580 nM; in the data set “in vitro” (setting [12]) it was greater than 20000 nM. Also, the EC50 is greater than 20000 nM in the data set “in vitro” (setting [13]), 2660 nM in the data set “in vitro” (setting [14]), 11300 nM in the data set “in vitro” (setting [15]) and 12 nM in data set [5]. In addition, the HEPG2 fold selectivity in data set [6] worked out at 390.6 fold. The SH-SY5Y fold selectivity in data set [3] was found to be 91.9 fold. Also, in data set [4], the THP-1 fold selectivity is given as 88.9 fold.
On to `COc1ccc(NC(=O)N2CCCCN3[C@H](CN(C)C)[C@H](c4ccc(C#Cc5ccccc5)cc4)[C@@H]3C2)cc1` [BRD7929], for which, in data set [1], the “EC50 log inhib vs normalized response” value is 0.0226. For the same compound, the 3XEC90 in data set [1] (Fig 6A source data) is listed as 293.00. The EC50 in data set [1] (ME49-FLuc, 10-point dose-response, two biological replicates, listed as BR7929, read-out: EC50, T. gondii tachyzoite growth) was 22.6 nM; in data set [1] (setting [8]), 23 nM; in data set [1] (setting [9]) it was 23 nM; in data set [1] (setting [10]), 22 nM; in data set [1] (Toxoplasma gondii, Fig 6A source data, in vitro tachyzoites, read-out: EC50), 23 nM; in the data set with T. gondii RH-FLuc parent (Toxoplasma gondii, read-out: EC50, parent RH-FLuc), 14 nM. For the same compound, the EC50 in the data set “in vitro” (setting [11]) is 672 nM; in “in vitro” (setting [12]) it was 5370 nM; in “in vitro” (setting [13]), 7870 nM; in the data set “in vitro” (setting [14]), 731 nM; in “in vitro” (setting [15]), 3060 nM; in data set [5], 13 nM. For the same compound, the EC90 in data set [1] (Toxoplasma gondii, Fig 6A source data, in vitro tachyzoites, read-out: EC90) was determined as 98 nM; in data set [1] (setting [17]) it was 98 nM. Also, the “3xEC90, tachyzoite growth” value in data set [1] (three times EC90) is 0.293 µM. For the same compound, the “luciferase signal (raw)” value is 5 and 6 and 7 and 8 with T. gondii RH-FLuc parent (concentration 2.222222); 5 and 4 and 6 in the data set with T. gondii RH-FLuc parent (concentration 6.666667). Moreover, the “luciferase signal (raw, Fig 3B source data)” value in the data set on T. gondii RH-FLuc parent ({}) amounted to 5.
On to `COc1ccc(NC(=O)N2CCCCN3[C@H](CN(C)S(C)(=O)=O)[C@H](c4ccc(C#Cc5ccccc5)cc4)[C@@H]3C2)cc1` [BRD8494], for which the “EC50 log inhib vs normalized response” value in data set [1] (setting [7]) turned out to be 0.03476. The EC50 in data set [1] (setting [16]) is 34.8 nM; in data set [1] (setting [8]) it was 34.8 nM; in data set [1] (setting [9]) it was 35 nM; in data set [1] (setting [10]) it was 34 nM; in “in vitro” (setting [11]), 461 nM; in the data set “in vitro” (setting [12]), greater than 20000 nM. The EC50 in “in vitro” (setting [13]) is greater than 20000 nM; in “in vitro” (setting [14]) it was 1780 nM; in “in vitro” (setting [15]), greater than 20000 nM; in data set [5] it was 26 nM. Further, the EC90 in data set [1] (setting [17]) was 95 nM. In addition, the A549 fold selectivity in data set [2] was greater than 571.4 fold. Also, in data set [6], the HEPG2 fold selectivity is 571.4 fold. The compound also returned an SH-SY5Y fold selectivity in data set [3] of 51.0 fold. This compound also gave a THP-1 fold selectivity in data set [4] of 13.2 fold.

These data come from article PMC8786932, “Bicyclic azetidines target acute and chronic stages of Toxoplasma gondii by inhibiting parasite phenylalanyl t-RNA synthetase” (Nature Communications, 2022).
